Where “and” joins values, the source holds several entries; their conditions need not be identical. Identical values can stand only once.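 These data come from cells grown in 96-well plates and exposed to compound for 48 hours at five concentrations. GI50 marks 50% less growth. TGI: concentration producing complete growth inhibition.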
Experiments:
Assay in all cases: NCI tumour cell line growth inhibition, 48 h
ACHN renal = system: ACHN renal
HL-60(TB) leukemia = system: HL-60(TB) leukemia
HT29 colon = system: HT29 colon
MALME-3M melanoma = system: MALME-3M melanoma
SK-OV-3 ovarian = system: SK-OV-3 ovarian
UACC-257 melanoma = system: UACC-257 melanoma
HCT-116 colon = system: HCT-116 colon
U251 CNS = system: U251 CNS
HS 578T breast = system: HS 578T breast
MDA-MB-231 breast = system: MDA-MB-231 breast

| SMILES | TGI (ACHN renal) | TGI (HL-60(TB) leukemia) | TGI (HT29 colon) | TGI (MALME-3M melanoma) | TGI (SK-OV-3 ovarian) | TGI (UACC-257 melanoma) | TGI (HCT-116 colon) | TGI (U251 CNS) | GI50 (ACHN renal) | GI50 (HCT-116 colon) | GI50 (HL-60(TB) leukemia) | GI50 (MALME-3M melanoma) | GI50 (SK-OV-3 ovarian) | GI50 (U251 CNS) | GI50 (UACC-257 melanoma) | GI50 (HS 578T breast) | TGI (HS 578T breast) | GI50 (HT29 colon) | GI50 (MDA-MB-231 breast) | TGI (MDA-MB-231 breast) |
| --- | --- | --- | --- | --- | --- | --- | --- | --- | --- | --- | --- | --- | --- | --- | --- | --- | --- | --- | --- | --- |
| O=C1CC(O)(c2ccccc2)C(c2ccccc2)=C1c1ccccc1 (stereo not given) | > 100 µM | 56.3 µM | > 100 µM | > 100 µM | > 100 µM | > 100 µM |  |  |  |  |  |  |  |  |  |  |  |  |  |  |
| COC(=O)c1ccc(Cl)cc1NC(=O)C1CCCCC1 | > 100 µM |  | > 100 µM | > 100 µM |  | > 100 µM | > 100 µM | > 100 µM |  |  |  |  |  |  |  |  |  |  |  |  |
| C[n+]1ccc(-c2c3nc(c(-c4cc[n+](C)cc4)c4ccc([n-]4)c(-c4cc[n+](C)cc4)c4nc(c(-c5cc[n+](C)cc5)c5ccc2[n-]5)C=C4)C=C3)cc1.[I-].[Zn+2] | 36.2 µM | 42 µM |  | 39.8 µM | 69.5 µM | 30.1 µM | > 100 µM | 52.8 µM | 15.5 µM | 50.5 µM | 21.5 µM | 18.3 µM | 33 µM | 22 µM | 9.61 µM |  |  |  |  |  |
| Fc1cccc2c1cc1ccc3cccc4ccc2c1c34 | > 100 µM | > 100 µM | > 100 µM | > 100 µM | > 100 µM | > 100 µM | > 100 µM | > 100 µM |  |  |  |  |  |  |  |  |  |  |  |  |
| N#C/C(=C/Sc1ccccc1)C(=O)O | > 100 µM | > 100 µM | 84.1 µM |  | > 100 µM | > 100 µM | 55.8 µM | 45.9 µM |  |  |  |  |  |  |  |  |  |  |  |  |
| COc1cc2c(cc1OC)C(=O)Cc1ccc(OC)c(OC)c1CN(C)CC2 | > 100 µM |  | > 100 µM | > 100 µM | > 100 µM | > 100 µM | > 100 µM | > 100 µM |  |  |  |  |  |  |  |  |  |  |  |  |
| O=C1c2ccccc2-c2c1c1c(O)cccc1n2-c1ccccc1 | > 100 µM |  | > 100 µM | > 100 µM | > 100 µM | > 100 µM | > 100 µM | > 100 µM | > 100 µM | > 100 µM |  | > 100 µM | > 100 µM | > 100 µM | > 100 µM | > 100000 nM | > 100 µM | > 100000 nM | > 100 µM | > 100000 nM |
| O=C(NC1C2CC3CC(C2)CC1C3)c1cc(/C=C/c2ccccc2)[nH]c(=S)n1 (stereo not given) | > 100 µM | > 100 µM |  | > 100 µM | > 100 µM | > 100 µM | > 100 µM | > 100 µM |  |  |  |  |  |  |  |  |  |  |  |  |
| COc1ccc(OC(C(=O)O)c2ccccc2)c2c1CCCC2=O (stereo not given) | > 100 µM | > 100 µM | > 100 µM | > 100 µM | > 100 µM | > 100 µM | > 100 µM | > 100 µM |  |  |  |  |  |  |  |  |  |  |  |  |
| OC1C2CCC1C1C3C=CC(C3)C21 (stereo not given) | > 100 µM | > 100 µM | > 100 µM | > 100 µM | > 100 µM | > 100 µM | > 100 µM | > 100 µM |  |  |  |  |  |  |  |  |  |  |  |  |
| Cc1cc2c(c3oc(C4(C)OC4C4OC4C)cc(=O)c13)C(=O)c1c(O)c(C3CC(C)(N(C)C)C(O)C(C)O3)cc(C3CC(N(C)C)C(O)C(C)O3)c1C2=O (stereo not given) | 8.08e-05 µM and 0.000153 µM |  | 0.0427 µM and 0.131 µM and 0.0337 µM |  |  | 0.00312 µM and 0.000772 µM |  |  |  |  |  |  | 0.00238 µM |  |  | 1.58 nM | 0.00405 µM and 0.00187 µM | 2.5 nM |  | 0.547 nM and 1.61 nM |
| c1ccc2c(c1)[nH]c1c2nc2ncccn21 | > 100 µM |  | > 100 µM | > 100 µM | > 100 µM | > 100 µM | > 100 µM | > 100 µM |  |  |  |  |  |  |  |  |  |  |  |  |
| O=C1c2ccccc2C(=O)N1C/C=C/CO | > 100 µM | > 100 µM |  | > 100 µM | > 100 µM | > 100 µM | > 100 µM | > 100 µM |  |  |  |  |  |  |  |  |  |  |  |  |
| O=c1oc(=O)c2oc3ccccc3oc1=2 | > 100 µM | > 100 µM | > 100 µM | > 100 µM | > 100 µM | > 100 µM | > 100 µM | > 100 µM |  |  |  |  |  |  |  |  |  |  |  |  |
| O=S(O)CCCSSc1ccccc1 | > 100 µM |  | > 100 µM | > 100 µM | > 100 µM | > 100 µM | > 100 µM | > 100 µM |  |  |  |  |  |  |  |  |  |  |  |  |
| S=c1nc(Cl)cc2[nH]c(Cl)cn12 | > 100 µM |  | 75.3 µM | > 100 µM | 8.4 µM | > 100 µM | 16.6 µM | > 100 µM |  |  |  |  |  |  |  |  | 6.34 µM |  |  | 43900 nM |
| CCOC(=O)/C(C#N)=C1/C(O)=C(C(=O)OC)C(C(=O)OC)=C1C(=O)OC | > 100 µM | > 100 µM | > 100 µM | > 100 µM | > 100 µM | > 100 µM |  | > 100 µM |  |  |  |  |  |  |  |  |  |  |  |  |
| COc1ccc2nc3ccccc3c(NCCCN(C)CCCl)c2c1 | 0.695 µM |  | 2.66 µM | 1.55 µM | 3.34 µM | 2.24 µM | 1.36 µM | 1.71 µM |  |  |  |  |  |  |  |  | 3.85 µM |  |  |  |
